Experimental findings from patent US20230054093A1, “TREATMENT” (priority 2019, published 2023) are described below.

Assay [1] concerns the target T1, Streptococcus pneumoniae NanA sialidase CBM (SpCBM, SEQ ID NO: 4) variant Im19 V239A (Streptococcus pneumoniae, UniProt P62575, V239A).
T1 construct: SpCBM, residues 121-305 of S. pneumoniae NanA sialidase; 6His (pHISTEV) (cleaved yes); made in house; host or cells: E. coli
Briefly: Surface plasmon resonance (SPR, Biacore) binding affinity to sialyllactose. Also noted: key: Green: green indicates that the variant closely resembles its WT counterpart for that particular characteristic; Green’: pale green (green’) or yellow indicate increasing degrees of differences; Yellow: pale green (green’) or yellow indicate increasing degrees of differences; Orange: Red or orange indicate significant differences; Red or orange indicate significant differences. The conditions noted are these: qualitative colour code vs WT. From the text:
(§1) The 13 soluble proteins were expressed in E. coli and purified by immobilized metal affinity chromatography (IMAC), followed by TEV digestion to remove the 6His-tag, then reverse IMAC and size exclusion chromatography (SEC).
(§2) Ten purified domains (WTSp, Im19, Im20, Im21, Im22, Im23, WTTD, Im24, Im26 and Im27) were further characterized by:
(§3) (iv) Surface plasmon resonance (SPR) to measure binding affinity to sialyllactose
(In general: SPR reads the build-up and loss of mass on a sensor chip optically.)

The target in assay [2] is T2, Streptococcus pneumoniae NanA sialidase CBM (SpCBM, SEQ ID NO: 4) variant Im20 V239T (Streptococcus pneumoniae, UniProt P62575, V239T).
T2 construct: SpCBM, residues 121-305 of S. pneumoniae NanA sialidase; 6His (pHISTEV) (cleaved yes); made in house; host or cells: E. coli
The description is as above. Also on record: key: Green: green indicates that the variant closely resembles its WT counterpart for that particular characteristic; Green’: pale green (green’) or yellow indicate increasing degrees of differences; Yellow: pale green (green’) or yellow indicate increasing degrees of differences; Orange: Red or orange indicate significant differences; Red or orange indicate significant differences. The conditions noted are these: qualitative colour code vs WT.
Excerpt: as §1, §2, §3

Assay [3] addresses T3, Streptococcus pneumoniae NanA sialidase CBM (SpCBM, SEQ ID NO: 4) variant Im21 V246G (Streptococcus pneumoniae, UniProt P62575, V246G).
T3 construct: SpCBM, residues 121-305 of S. pneumoniae NanA sialidase; 6His (pHISTEV) (cleaved yes); made in house; host or cells: E. coli
Described as above. Also on record: key: Green: green indicates that the variant closely resembles its WT counterpart for that particular characteristic; Green’: pale green (green’) or yellow indicate increasing degrees of differences; Yellow: pale green (green’) or yellow indicate increasing degrees of differences; Orange: Red or orange indicate significant differences; Red or orange indicate significant differences. The settings on record: qualitative colour code vs WT.
Excerpt: as §1, §2, §3

Assay [4] deals with T4, Streptococcus pneumoniae NanA sialidase CBM (SpCBM, SEQ ID NO: 4) variant Im22 I286A (Streptococcus pneumoniae, UniProt P62575, I286A).
T4 construct: SpCBM, residues 121-305 of S. pneumoniae NanA sialidase; 6His (pHISTEV) (cleaved yes); made in house; host or cells: E. coli
Described as above. The settings on record: qualitative colour code vs WT. Also noted: key: Green: green indicates that the variant closely resembles its WT counterpart for that particular characteristic; Green’: pale green (green’) or yellow indicate increasing degrees of differences; Yellow: pale green (green’) or yellow indicate increasing degrees of differences; Orange: Red or orange indicate significant differences; Red or orange indicate significant differences.
Excerpt: as §1, §2, §3

Assay [5] concerns the target T5, Streptococcus pneumoniae NanA sialidase CBM (SpCBM, residues 121-305), wild type WTSp, SEQ ID NO: 4 (Streptococcus pneumoniae, UniProt P62575).
T5 construct: SpCBM, residues 121-305 of S. pneumoniae NanA sialidase; 6His (pHISTEV) (cleaved yes); made in house; host or cells: E. coli
The assay is described as above. Also noted: key: Green: green indicates that the variant closely resembles its WT counterpart for that particular characteristic; Green’: pale green (green’) or yellow indicate increasing degrees of differences; Yellow: pale green (green’) or yellow indicate increasing degrees of differences; Orange: Red or orange indicate significant differences; Red or orange indicate significant differences. The settings on record: qualitative colour code vs WT.
Excerpt: as §1, §2, §3

The target in assay [6] is T6, Streptococcus pneumoniae NanA sialidase CBM (SpCBM, SEQ ID NO: 4) variant Im23 Y292E (Streptococcus pneumoniae, UniProt P62575, Y292E).
T6 construct: SpCBM, residues 121-305 of S. pneumoniae NanA sialidase; 6His (pHISTEV) (cleaved yes); made in house; host or cells: E. coli
The assay is described as above. Also on record: key to Biacore (binding affinity to sialyllactose): Green: green indicates that the variant closely resembles its WT counterpart for that particular characteristic; Green’: pale green (green’) or yellow indicate increasing degrees of differences; Yellow: pale green (green’) or yellow indicate increasing degrees of differences; Orange: Red or orange indicate significant differences; Red or orange indicate significant differences.
Excerpt: as §1, §2, §3

Assay [7] addresses T7, Sp2CBMTD (SpOrig, SEQ ID NO: 7) variant HEX17 A162P/V239A/V246G/S342D/R403K, SEQ ID NO: 9 (Streptococcus pneumoniae, UniProt P62575, A162P/V239A/V246G).
T7 construct: PDB 2w38); trimerises; pHISTEV 6His, E. coli
Briefly: Biacore characterization of hexameric Sp2CBMTD variants. Also noted: key: Green: green indicates that the variant closely resembles its WT counterpart for that particular characteristic; Green’: pale green (green’) or yellow indicate increasing degrees of differences; Yellow: pale green (green’) or yellow indicate increasing degrees of differences; Orange: Red or orange indicate significant differences; Red or orange indicate significant differences. The assay is classed as binding, Streptococcus pneumoniae (CBM); Pseudomonas aeruginosa (TD). The settings on record: qualitative colour code vs WT hexamer.
Excerpt: as §3

For assay [8], the target named is T8, Sp2CBMTD (SpOrig, SEQ ID NO: 7) variant HEX6 V239A/V246G/S342D/R403K, SEQ ID NO: 8 (Streptococcus pneumoniae, UniProt P62575, V239A/V246G).
T8 construct: trimerises; pHISTEV 6His, E. coli
The assay is described as above. The assay is classed as binding, Streptococcus pneumoniae (CBM); Pseudomonas aeruginosa (TD). Also on record: key: Green: green indicates that the variant closely resembles its WT counterpart for that particular characteristic; Green’: pale green (green’) or yellow indicate increasing degrees of differences; Yellow: pale green (green’) or yellow indicate increasing degrees of differences; Orange: Red or orange indicate significant differences; Red or orange indicate significant differences. The conditions noted are these: qualitative colour code vs WT hexamer.
Excerpt: as §3

Molecules are shown by their SMILES.

Regarding `CC(=O)N[C@H]1[C@H]([C@H](O)[C@H](O)CO)O[C@@](O[C@H]2[C@@H](O)[C@@H](CO)O[C@@H](O[C@H]3[C@H](O)[C@@H](O)C(O)O[C@@H]3CO)[C@@H]2O)(C(=O)O)C[C@@H]1O` (stereo partly drawn) [sialyllactose], the “Biacore (binding affinity to sialyllactose)” value was “Green” in assay [1]; “Green” in assay [2]; “Green” in assay [3]; “Green” in assay [4]; “Green” in assay [5]; “Yellow” in assay [6] (qualitative colour code vs WT). Besides, in assay [6] (in words, compared with WT), the ligand affinity entry is given as “reduced ligand affinity”. Moreover, the Biacore result in assay [7] and in assay [8] was “Green” in each case.
